# Experimental data: patent publication US8278309B2, “Synthetic mimetics of host defense and uses thereof” (priority 2008, dated 2012)
# “Also recorded” adds a separate entry of the source. Counter-ions that a name gives are not always drawn.
# Assays:
# [1] = Hemolysis assay using human erythrocytes; assay type: cell-based; conditions: human, pH 7.4
# Description: (§3) Pooled whole human blood was centrifuged to separate the red blood cells (RBC). The isolated RBCs were rinsed and diluted in Tris-buffered saline (TBS buffer, pH 7.4) to obtain a 0.22% RBC stock suspension. 5 μL of Compound A stock solution was added to 45 μL of RBC suspension and incubated with shaking for 1 hour at 37° C. At the conclusion of the incubation time, samples were centrifuged and 30 μL of the supernatant was added to 100 μL of water. OD414 measurements were read for hemoglobin concentration. […] EC50 values were determined as described above.
# [2] = tested on: human erythrocytes (RBCs); test: Hemolysis assay using human erythrocytes; assay type: cell-based; conditions: vs S. aureus MIC
# Description: as §3
# [3] = Cytotoxicity colorimetric assay, NIH/3T3; assay type: cell-based, mouse; conditions: mouse, NIH/3T3 cells; one hour in serum-free media
# Description: (§1) Cytotoxicity of Compound A was evaluated in a colorimetric assay using a transformed human liver cell line (HepG2, HB-8065) and an embryonic mouse cell line (NIH/3T3 cells, CRL-1658). This assay measures the bioreduction of a novel tetrazolium compound to a soluble formazan product by viable cells. HepG2 cells were seeded in 96 well plates at 2×10^4 cells/well in MEM medium with 10% fetal bovine serum (FBS) 24 hours prior to use. NIH/3T3 cells were seeded in 96 well plates at 2×10^4 cells/well in DMEM medium with 10% bovine calf serum (BCS) 24 hours prior to use. Cell monolayers were rinsed in serum-free media and incubated for one hour with Compound A in serum-free media. After incubation, the media was replaced with serum supplemented media and live cells were measured using the Cell Titer 96 Aqueous […] Assay kit (Promega, Madison, Wis.). EC50 values were determined using a four parameter logistic equation: Y=Bottom+(Top-Bottom)/(1+10^((LogEC50−X)*HillSlope)).
# NIH/3T3 cells = test: Cytotoxicity colorimetric assay, NIH/3T3; assay type: cell-based, mouse; conditions: vs S. aureus MIC
# Description: as §1
# [4] = Cytotoxicity colorimetric assay, HepG2; assay type: cell-based, human; conditions: human, HepG2 cells; one hour in serum-free media
# Description: (§4) This assay measures the bioreduction of a novel tetrazolium compound to a soluble formazan product by viable cells. HepG2 cells were seeded in 96 well plates at 2×10^4 cells/well in MEM medium with 10% fetal bovine serum (FBS) 24 hours prior to use. NIH/3T3 cells were seeded in 96 well plates at 2×10^4 cells/well in DMEM medium with 10% bovine calf serum (BCS) 24 hours prior to use. […] After incubation, the media was replaced with serum supplemented media and live cells were measured using the Cell Titer 96 Aqueous Non-Proliferation Assay kit (Promega, Madison, Wis.). EC50 values were determined using a four parameter logistic equation: Y=Bottom+(Top-Bottom)/(1+10^((LogEC50−X)*HillSlope)).
# HepG2 = test: Cytotoxicity colorimetric assay, HepG2; assay type: cell-based, human; conditions: vs S. aureus MIC
# Description: as §4
# MSSA ATCC 29213 = test: Serial passage resistance, MSSA; assay type: cell-based, S. aureus; conditions: 0.5×MIC, 17 passages
# Description: (§2) Frozen bacterial stocks (20 μL) of S. aureus ATCC29213 or methicillin-resistant S. aureus (MRSA ATCC 33591) were inoculated into 3 mL cation-adjusted Mueller-Hinton medium and incubated at 37° C. on a shaker platform (250 rpm) overnight. The suspension was diluted to approximately 5×10^5 cfu/mL and inoculated into a polypropylene (Costar) 96-well round bottom plate (90 μL volumes). Compound stock solutions of Compound A and norfloxacin (Sigma Aldrich, St. Louis, Mo.; Catalogue# N9890) were prepared in DMSO and serial two-fold dilutions of compound were made in 0.01% acetic acid, 0.2% bovine serum albumin directly in the wells of the polypropylene plate at 10 μL/well. Final concentrations of Compound A were 50, 25, 12.5, 6.25, 3.13, 1.56, 0.78, 0.39, 0.19, 0.098, 0.049, and 0.024 μg/mL. Final concentration ranges of norfloxacin were 100, 50, 25, 12.5, 6.25, 3.13, 1.56, 0.78, 0.39, 0.19, 0.098, and 0.049 μg/mL. […] All samples were performed in triplicate. Following a 24 hour incubation at 37° C., cell growth was assessed by observing the presence of “acceptable growth”, defined by CLSI as a ≧2 mm button or definite turbidity. The MIC wells were defined as the lowest concentration where acceptable growth was not observed. For serial passage, 50 μL aliquots were taken from 2 of 3 replicate wells at 0.5×MIC and combined into 900 μL of fresh cation-adjusted Mueller-Hinton medium. The OD600 was measured and the cell suspensions were inoculated into polypropylene 96-well round bottom plates (90 μL volumes) at approximately 5×10^5 cfu/mL. Ten μL of compound stock solutions were added previously to the wells to achieve the concentration ranges for each compound described above. All samples were performed in triplicate. The plates were incubated for 24 hours at 37° C. This process was repeated for a total of 17 passages and MIC values were recorded at each passage.
# MRSA ATCC 33591 = test: Serial passage resistance, MRSA; assay type: cell-based, S. aureus; conditions: 0.5×MIC, 17 passages
# Description: as §2
# S. aureus (ATCC 13507) = test: Rat thigh burden model; assay type: in vivo; conditions: for reduction of bacterial load in comparison to inoculated controls / reduction relative to inoculum levels at 1 hour post-infection: 10 mg/kg/dose, 20 mg/kg total dose
# Description: For each experiment, female 8-9-week old femoral vein cannulated Crl:CD(SD) rats were made neutropenic with cyclophosphamide (150 mg/kg, i.p.) on days 4 and 1 before i.m. inoculation with S. aureus (ATCC 13507). A suspension of S. aureus was prepared from colonies obtained from an overnight culture, placed in PBS, and adjusted to approximately 10^7 cfu/mL with the aid of a spectrophotometer. Each rat was injected 0.2 mL of inoculum into the thigh muscle of the right hind leg. Thighs were harvested at 25 hours after inoculation and processed to determine cfu/thigh. Compound A was given by i.v. bolus injection into a tail vein or 1-hour i.v. infusion, or 4-hour i.v. infusion via the femoral vein cannulae at different time intervals following inoculation. Separate inoculation control groups were included in each experiment, and vancomycin groups were included as comparative agents in the first and second experiments. Each group, including the controls and comparative agent, consisted of 4 rats.
structure (smiles),measurement,setting,value
"N=C(N)NCCCCC(=O)Nc1cc(C(F)(F)F)cc(NC(=O)c2cc(C(=O)Nc3cc(C(F)(F)F)cc(NC(=O)CCCCNC(=N)N)c3O[C@H]3CCNC3)ncn2)c1O[C@H]1CCNC1 [Compound A, pyrimidine-4,6-dicarboxylic acid bis-{[3-(5-guanidino-pentanoylamino)-2-((R)-pyrrolidin-3-yloxy)-5-trifluoromethyl-phenyl]-amide}tetrahydrochloride]",EC50 at 1 h,[1],> 500 µg/mL
same,Selectivity (EC50/MIC) RBCs,[2],>500
same,EC50 at 1 h,[3],430 µg/mL
same,Selectivity (EC50/MIC) 3T3,NIH/3T3 cells,430
same,EC50 at 1 h,[4],1030 µg/mL
same,Selectivity (EC50/MIC) HepG2,HepG2,"1,031"
same,change in MIC values on serial passage,MSSA ATCC 29213,did not result in any change; also recorded: no change
same,change in MIC values on serial passage,MRSA ATCC 33591,did not result in any change; also recorded: no change
same,reduction of bacterial load in comparison to inoculated controls,S. aureus (ATCC 13507); 1 hour i.v. infusions,3.0 logs
same,reduction relative to inoculum levels at 1 hour post-infection,S. aureus (ATCC 13507); 1 hour i.v. infusions,~2.0 logs
same,reduction of bacterial load in comparison to inoculated controls,S. aureus (ATCC 13507); i.v. bolus,3.2 logs
same,reduction relative to inoculum levels at 1 hour post-infection,S. aureus (ATCC 13507); i.v. bolus,approximately 2.2 logs
same,efficacy relative to vancomycin,S. aureus (ATCC 13507); rat thigh burden,comparable to vancomycin
